Calls of active or inactive are those of the source. For most assays here, no stated cut-off is given here; in the data, actives have a measured IC50 and inactives only a lower limit.
How the values were obtained:
Bcl-2-related protein A1 = biological target: T1, Bcl-2-related protein A1 (Mus musculus, UniProt Q07440); type: functional;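 further: confirmatory dose–response counterscreen on Bfl-1, used to check hits from a UBC13 polyubiquitin inhibitor campaign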
T1 sequence (Q07440 whole entry): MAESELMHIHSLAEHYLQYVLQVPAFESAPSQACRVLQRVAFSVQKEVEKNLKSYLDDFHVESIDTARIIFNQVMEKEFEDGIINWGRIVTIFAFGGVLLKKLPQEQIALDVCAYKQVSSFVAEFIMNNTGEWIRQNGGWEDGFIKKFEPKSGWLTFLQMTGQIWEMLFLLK

[1] = biological target: T2, Ubiquitin-conjugating enzyme E2 N (Homo sapiens, UniProt P61088); type: functional
T2 sequence (P61088 whole entry): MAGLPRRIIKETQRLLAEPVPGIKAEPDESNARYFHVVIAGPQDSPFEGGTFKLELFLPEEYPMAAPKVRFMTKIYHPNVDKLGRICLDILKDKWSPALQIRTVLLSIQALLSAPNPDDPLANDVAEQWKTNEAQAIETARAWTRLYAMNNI

[2] = biological target: T2, Ubiquitin-conjugating enzyme E2 N; type: functional; remark: listed apart in the source
[3] = biological target: T3, Apoptotic protease-activating factor 1 (Homo sapiens, UniProt O14727); type: functional
T3 sequence (O14727 whole entry): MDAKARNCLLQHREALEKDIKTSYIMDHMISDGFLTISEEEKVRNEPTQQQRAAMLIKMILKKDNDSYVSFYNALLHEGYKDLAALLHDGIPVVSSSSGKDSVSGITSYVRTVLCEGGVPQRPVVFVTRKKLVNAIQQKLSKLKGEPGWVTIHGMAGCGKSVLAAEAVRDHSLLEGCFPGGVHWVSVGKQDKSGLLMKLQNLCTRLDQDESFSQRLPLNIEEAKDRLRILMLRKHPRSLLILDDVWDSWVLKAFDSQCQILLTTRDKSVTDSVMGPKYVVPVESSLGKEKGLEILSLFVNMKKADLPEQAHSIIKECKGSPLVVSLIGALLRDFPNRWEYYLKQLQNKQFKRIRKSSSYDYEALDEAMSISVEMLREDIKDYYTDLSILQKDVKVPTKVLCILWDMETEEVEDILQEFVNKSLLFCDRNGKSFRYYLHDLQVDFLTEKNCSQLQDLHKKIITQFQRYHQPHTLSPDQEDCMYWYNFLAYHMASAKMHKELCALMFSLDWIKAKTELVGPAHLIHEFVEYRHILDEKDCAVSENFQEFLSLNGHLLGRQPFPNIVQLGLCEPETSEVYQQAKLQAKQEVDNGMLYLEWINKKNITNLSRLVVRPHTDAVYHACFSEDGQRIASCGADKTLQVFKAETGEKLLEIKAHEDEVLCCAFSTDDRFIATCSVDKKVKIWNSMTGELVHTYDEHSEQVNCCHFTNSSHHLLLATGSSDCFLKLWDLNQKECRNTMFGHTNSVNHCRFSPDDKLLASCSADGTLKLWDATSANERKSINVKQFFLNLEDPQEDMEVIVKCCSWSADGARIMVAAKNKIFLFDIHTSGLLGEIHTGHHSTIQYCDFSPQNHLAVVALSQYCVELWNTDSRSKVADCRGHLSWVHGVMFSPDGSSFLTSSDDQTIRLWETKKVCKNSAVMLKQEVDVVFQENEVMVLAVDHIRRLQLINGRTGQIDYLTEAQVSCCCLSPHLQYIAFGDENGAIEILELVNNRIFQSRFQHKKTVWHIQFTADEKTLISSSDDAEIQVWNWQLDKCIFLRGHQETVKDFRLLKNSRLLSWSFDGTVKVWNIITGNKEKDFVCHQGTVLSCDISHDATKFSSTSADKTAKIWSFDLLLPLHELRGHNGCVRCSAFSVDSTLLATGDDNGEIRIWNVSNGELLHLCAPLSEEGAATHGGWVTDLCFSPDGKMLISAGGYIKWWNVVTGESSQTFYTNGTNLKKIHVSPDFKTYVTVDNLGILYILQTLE

Vero = experiment: cells; type: functional, cell-based; conditions: Chlorocebus sabaeus
[4] = biological target: Beta-2 adrenergic receptor (Homo sapiens, UniProt P07550); experiment: beta2AR agonists driving receptor internalization, dose response, cell-based, FAP fluorogen, flow cytometry, cherry pick 1 (AID 588763); type: functional
Beta-2 adrenergic receptor, sequence (P07550 whole entry): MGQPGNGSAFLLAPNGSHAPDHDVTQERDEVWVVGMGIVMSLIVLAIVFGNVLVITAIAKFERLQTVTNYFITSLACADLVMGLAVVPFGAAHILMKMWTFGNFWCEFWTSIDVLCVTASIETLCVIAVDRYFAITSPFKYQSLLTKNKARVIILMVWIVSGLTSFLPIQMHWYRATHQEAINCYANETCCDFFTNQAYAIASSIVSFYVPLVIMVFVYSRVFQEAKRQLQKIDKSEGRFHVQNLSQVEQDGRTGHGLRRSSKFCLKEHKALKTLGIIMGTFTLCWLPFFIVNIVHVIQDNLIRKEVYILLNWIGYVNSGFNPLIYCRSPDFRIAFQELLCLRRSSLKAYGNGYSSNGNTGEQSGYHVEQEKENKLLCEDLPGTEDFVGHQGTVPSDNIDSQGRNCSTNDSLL

[5] = biological target: T4, DNA repair and recombination protein RAD54-like (Homo sapiens, UniProt Q92698); experiment: inhibitors of human RAD54 branch migration, confirmation, biochemical, fluorescence, cherry-picked samples, dose series (AID 651657); type: functional
T4 sequence (Q92698 whole entry): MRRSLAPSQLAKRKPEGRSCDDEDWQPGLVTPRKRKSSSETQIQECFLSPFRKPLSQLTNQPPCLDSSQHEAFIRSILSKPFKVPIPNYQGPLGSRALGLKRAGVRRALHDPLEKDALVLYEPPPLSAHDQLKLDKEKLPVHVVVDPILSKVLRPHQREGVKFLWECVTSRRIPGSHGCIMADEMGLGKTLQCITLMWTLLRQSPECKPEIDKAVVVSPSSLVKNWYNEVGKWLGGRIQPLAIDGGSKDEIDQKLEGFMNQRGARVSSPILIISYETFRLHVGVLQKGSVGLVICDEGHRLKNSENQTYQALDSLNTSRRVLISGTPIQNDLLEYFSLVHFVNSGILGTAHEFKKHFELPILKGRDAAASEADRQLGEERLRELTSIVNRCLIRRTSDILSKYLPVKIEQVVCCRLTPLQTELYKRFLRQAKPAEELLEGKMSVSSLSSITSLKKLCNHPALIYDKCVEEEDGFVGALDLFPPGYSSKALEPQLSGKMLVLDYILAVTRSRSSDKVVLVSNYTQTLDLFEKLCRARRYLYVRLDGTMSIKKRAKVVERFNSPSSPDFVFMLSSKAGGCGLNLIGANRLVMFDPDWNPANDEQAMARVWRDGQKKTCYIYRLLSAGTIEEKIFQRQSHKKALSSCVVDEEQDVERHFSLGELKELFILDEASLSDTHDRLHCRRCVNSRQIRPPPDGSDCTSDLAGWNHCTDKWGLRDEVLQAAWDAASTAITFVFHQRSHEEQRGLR

[6] = biological target: T5, Rac GTPase-activating protein 1 (Homo sapiens, UniProt Q9H0H5); experiment: MgcRacGAP GTPase-activating activity inhibitors, confirmation, biochemical, ADP Hunter fluorescence, primary and confirmatory (AID 624330); type: functional
T5 sequence (Q9H0H5 whole entry): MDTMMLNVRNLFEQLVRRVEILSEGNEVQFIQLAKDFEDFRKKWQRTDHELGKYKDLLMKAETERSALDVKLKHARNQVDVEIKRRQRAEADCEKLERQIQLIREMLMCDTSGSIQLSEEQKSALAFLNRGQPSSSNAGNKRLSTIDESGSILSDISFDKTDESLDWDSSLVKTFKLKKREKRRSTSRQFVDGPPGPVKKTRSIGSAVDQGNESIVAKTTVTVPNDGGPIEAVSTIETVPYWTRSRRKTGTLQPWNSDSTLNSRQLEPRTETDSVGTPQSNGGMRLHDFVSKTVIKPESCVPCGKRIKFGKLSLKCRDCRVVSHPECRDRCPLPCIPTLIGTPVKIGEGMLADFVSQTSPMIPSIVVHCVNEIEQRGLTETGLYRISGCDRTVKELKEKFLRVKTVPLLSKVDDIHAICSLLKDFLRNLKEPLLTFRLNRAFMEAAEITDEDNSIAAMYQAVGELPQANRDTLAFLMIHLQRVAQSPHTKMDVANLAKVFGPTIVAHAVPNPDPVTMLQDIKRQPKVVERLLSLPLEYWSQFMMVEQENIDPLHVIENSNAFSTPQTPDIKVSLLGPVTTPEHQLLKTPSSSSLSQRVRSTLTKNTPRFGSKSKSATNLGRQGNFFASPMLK

Caspase-3 = biological target: T6, Caspase-3 (Homo sapiens, UniProt P42574); type: functional;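 further: Dose-response selectivity test against caspase-3 for candidate inhibitors of sentrin-specific proteases (SENPs)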
T6 sequence (P42574 whole entry): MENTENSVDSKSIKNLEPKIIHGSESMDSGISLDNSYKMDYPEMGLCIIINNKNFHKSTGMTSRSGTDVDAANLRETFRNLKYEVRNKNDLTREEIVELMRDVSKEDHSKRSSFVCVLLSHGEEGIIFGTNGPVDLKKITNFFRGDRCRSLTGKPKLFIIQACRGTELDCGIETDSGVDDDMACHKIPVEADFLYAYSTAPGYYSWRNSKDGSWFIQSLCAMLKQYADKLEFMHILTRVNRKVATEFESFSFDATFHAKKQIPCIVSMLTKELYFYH

[7] = biological target: T7, Sentrin-specific protease 7 (Homo sapiens, UniProt Q9BQF6); type: functional;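 further: Luminescence-based dose-response confirmation of ultra-high-throughput screening hits, measuring inhibition of SENP7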
T7 sequence (Q9BQF6 whole entry): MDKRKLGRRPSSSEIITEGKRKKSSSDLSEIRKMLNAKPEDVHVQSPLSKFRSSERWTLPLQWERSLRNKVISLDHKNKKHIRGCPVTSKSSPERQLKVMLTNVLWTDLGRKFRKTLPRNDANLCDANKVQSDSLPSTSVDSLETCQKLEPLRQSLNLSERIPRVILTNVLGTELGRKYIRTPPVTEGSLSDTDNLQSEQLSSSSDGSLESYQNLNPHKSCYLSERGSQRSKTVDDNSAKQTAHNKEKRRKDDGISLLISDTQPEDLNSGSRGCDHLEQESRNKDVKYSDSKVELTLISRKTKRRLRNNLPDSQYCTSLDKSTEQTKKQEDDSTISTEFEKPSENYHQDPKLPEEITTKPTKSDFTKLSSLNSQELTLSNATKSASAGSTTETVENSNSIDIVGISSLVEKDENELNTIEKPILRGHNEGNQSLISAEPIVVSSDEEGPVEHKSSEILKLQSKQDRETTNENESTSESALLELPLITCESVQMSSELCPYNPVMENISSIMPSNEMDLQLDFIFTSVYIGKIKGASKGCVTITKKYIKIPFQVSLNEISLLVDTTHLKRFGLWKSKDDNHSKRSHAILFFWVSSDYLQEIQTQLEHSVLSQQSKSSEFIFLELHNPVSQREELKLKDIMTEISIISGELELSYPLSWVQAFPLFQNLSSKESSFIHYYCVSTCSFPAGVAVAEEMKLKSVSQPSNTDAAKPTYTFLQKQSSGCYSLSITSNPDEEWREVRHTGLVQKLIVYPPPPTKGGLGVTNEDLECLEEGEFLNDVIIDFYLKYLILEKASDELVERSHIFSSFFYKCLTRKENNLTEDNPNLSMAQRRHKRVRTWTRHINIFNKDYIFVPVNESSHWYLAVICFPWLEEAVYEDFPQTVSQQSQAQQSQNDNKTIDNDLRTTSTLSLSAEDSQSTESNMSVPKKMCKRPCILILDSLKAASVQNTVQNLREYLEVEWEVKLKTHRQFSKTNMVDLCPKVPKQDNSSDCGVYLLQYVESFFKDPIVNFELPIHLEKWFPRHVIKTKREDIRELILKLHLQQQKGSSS

[8] = biological target: T8, Sentrin-specific protease 6 (Homo sapiens, UniProt Q9GZR1); type: functional;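 further: Luminescence-based dose-response confirmatory assay of SENP6 inhibition, following up an ultra-high-throughput screen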
T8 sequence (Q9GZR1 whole entry): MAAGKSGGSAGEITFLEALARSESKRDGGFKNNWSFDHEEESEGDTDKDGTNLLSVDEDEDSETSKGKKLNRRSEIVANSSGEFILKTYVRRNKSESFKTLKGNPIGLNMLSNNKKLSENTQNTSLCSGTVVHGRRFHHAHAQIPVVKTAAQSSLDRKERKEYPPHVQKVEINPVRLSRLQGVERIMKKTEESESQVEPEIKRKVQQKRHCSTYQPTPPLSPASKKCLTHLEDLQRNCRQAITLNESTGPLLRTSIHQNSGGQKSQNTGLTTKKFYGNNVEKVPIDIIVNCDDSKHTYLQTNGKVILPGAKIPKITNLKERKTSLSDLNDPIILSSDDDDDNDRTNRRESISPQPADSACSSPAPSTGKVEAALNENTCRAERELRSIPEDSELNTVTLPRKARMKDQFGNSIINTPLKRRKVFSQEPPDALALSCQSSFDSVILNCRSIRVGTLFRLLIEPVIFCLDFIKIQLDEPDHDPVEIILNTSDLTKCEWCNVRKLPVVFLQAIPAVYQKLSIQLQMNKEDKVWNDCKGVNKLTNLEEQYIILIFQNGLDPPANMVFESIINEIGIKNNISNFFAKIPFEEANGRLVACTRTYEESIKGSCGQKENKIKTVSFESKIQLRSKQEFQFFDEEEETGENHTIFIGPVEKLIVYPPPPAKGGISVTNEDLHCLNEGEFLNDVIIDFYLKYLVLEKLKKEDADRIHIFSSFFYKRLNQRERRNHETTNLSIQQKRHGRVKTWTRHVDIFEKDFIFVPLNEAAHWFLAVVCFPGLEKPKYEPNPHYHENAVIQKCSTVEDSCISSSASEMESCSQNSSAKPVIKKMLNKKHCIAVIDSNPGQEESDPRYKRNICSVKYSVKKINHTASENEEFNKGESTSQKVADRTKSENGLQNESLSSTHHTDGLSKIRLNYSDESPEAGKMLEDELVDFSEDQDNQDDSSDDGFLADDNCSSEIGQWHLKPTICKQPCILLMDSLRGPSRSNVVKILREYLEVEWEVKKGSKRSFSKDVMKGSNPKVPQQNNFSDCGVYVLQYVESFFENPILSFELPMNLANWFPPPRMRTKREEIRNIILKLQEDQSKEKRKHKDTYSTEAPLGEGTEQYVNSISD

[9] = biological target: T9, Sentrin-specific protease 8 (Homo sapiens, UniProt Q96LD8); type: functional;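 further: luminescence read-out of SENP8 inhibition, dose-response confirmation following an ultra-high-throughput screen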
T9 sequence (Q96LD8 whole entry): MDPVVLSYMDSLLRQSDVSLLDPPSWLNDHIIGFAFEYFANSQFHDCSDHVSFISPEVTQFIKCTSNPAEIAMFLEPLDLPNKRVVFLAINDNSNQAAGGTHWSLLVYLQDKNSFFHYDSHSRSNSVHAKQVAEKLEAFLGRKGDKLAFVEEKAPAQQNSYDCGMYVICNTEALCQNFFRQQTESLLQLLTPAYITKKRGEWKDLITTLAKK

## COc1cc2nc(N3CCNCC3)nc(N)c2cc1OC
Bcl-2-related protein A1
  IC50: 11.1 µM (active)
[1]
  IC50: 1.5 µM (active)
[2]
  IC50: 0.873 µM (active)
[3]
  IC50: 31.5 µM (active)
Vero
  IC50: 22.4 µM (active)
[4]
  EC50: 8.61 µM (inactive)
[5]
  AC50: 1.49 µM (active)
[6]
  IC50: 63.1 µM (active)

## O=C(CCc1ccccc1)c1ccc2c(c1)OCCCO2
Caspase-3
  IC50: 28.9 µM (active)
[7]
  IC50: 9.59 µM (active)
[8]
  IC50: 32.8 µM (active)
[9]
  IC50: 27.3 µM (active)

## Cc1cc(N/N=C/c2ccc3c(c2)OCO3)nc2ccccc12
Caspase-3
  IC50: 27.6 µM (active)
[7]
  IC50: 4.64 µM (active)
[8]
  IC50: 17.6 µM (active)
[9]
  IC50: 21.9 µM (active)
